Laboratory results from PubChem BioAssay (NCI).
Values joined by “and” are separate entries in the source; they are usually repeats but may differ in a detail not shown here. Identical values can stand only once.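 Grown in 96-well plates, cells were treated for 48 hours with each compound at five concentrations. Insufficient inhibition: endpoint recorded as highest concentration tested. Here, GI50 denotes the concentration required for 50% inhibition of growth. TGI: total growth inhibition.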 Where a SMILES comes first, the peptide text is derived from it. The star is where a group is joined. Trt = c1ccc(C(c2ccccc2)(c2ccccc2)*)cc1; Cbz = O=C(OCc1ccccc1)*

Tested on: MDA-MB-468 breast
Experiment: growth of human tumour cells (NCI), 48 h

| Compound | GI50 | TGI |
| --- | --- | --- |
| COc1cc(/C=N/NC(=O)c2ccccc2Nc2cccc(C(F)(F)F)c2)cc(OC)c1OC | 1.75 µM | 11.8 µM |
| Cc1ccc(-c2n[nH]c(=O)c3noc(-c4ccc(C)cc4)c23)cc1 | 0.37 µM | 4.88 µM |
| Cc1cc2nc3c4ccc(Br)cc4n(CCN(C)C)c3nc2cc1C | 1.21 µM | 2.91 µM |
| CCCN1CCC=C(c2ccc(Nc3nc(Nc4ccccc4C(N)=O)c4cc[nH]c4n3)c(C)c2)C1 | > 14.6 µM | > 25 µM |
| COc1ccc(C(=O)c2cc3c(N)c(C(=O)Nc4cccc(OC)c4)sc3nc2C)cc1 | 0.396 µM |  |
| Cc1c(Cl)cccc1NC(=O)c1sc2nc3c(cc2c1N)CCCC3 | 0.394 µM | > 100 µM |
| Nc1nc(N)c2c(n1)NC(c1sc(Cl)nc1Cl)CC(c1ccc3c(c1)OCO3)=N2 (stereo unspecified) | 1.65 µM | 13.3 µM |
| COc1ccc(-c2n/c(=C\c3c(O)[nH]c4ccccc34)cc3c2=Nc2ccccc2-3)cc1 | 0.368 µM | 1.43 µM |
| COc1cc(OC)c(/C=C/S(=O)(=O)Cc2ccc(OC)c(NCC(=O)NO)c2)c(OC)c1 | 0.0293 µM | > 100 µM |
| CCOC(=O)c1c(NCC(=O)Nc2ccc(Br)cc2)sc2c1CCCC2 | 1.95 µM | 4.53 µM |
| COc1ccc(C2=Nc3c/c(=C\c4c(O)[nH]c5cc(Cl)ccc45)ccc3=N2)cc1 | 3.06 µM | 10.4 µM |
| COc1cccc2c1cc1c3c(cc4c(c32)OCO4)C(=O)N1 | 2.04 µM | 6.22 µM |
| O=C1/C(=C\c2ccccc2)C2OCC=C3CN4CCC56c7ccccc7N1C5C2C3CC46 (stereo unspecified) | 3.31 µM | 26.1 µM |
| O=C(Nc1cccc(C(F)(F)F)c1)c1cc2ccccc2cc1O | 2.2 µM | > 51.6 µM |
| C=C(C)[C@@H]1CC[C@]2(C(=O)NC(C)=O)CC[C@]3(C)[C@H](CC[C@@H]4[C@@]5(C)CCCNC(C)(C)[C@@H]5CC[C@]43C)[C@@H]12 | 1.6 µM | 3.1 µM |
| O=C(NOCCO)c1cc(CN2OCCCC2=O)c(F)c(F)c1Nc1ccc(I)cc1F | 14.2 µM and > 10 µM | 66.7 µM and > 10 µM |
| Oc1ccc(Cl)cc1/C=N\NC(=S)N/N=C/c1cc(Cl)ccc1O | 1.76 µM | 7.35 µM |
| CCCCCCCCCCSC(=N)N | 1.66 µM | 3.2 µM |

| Compound | GI50 | TGI |
| --- | --- | --- |
| Cn1cc(C2=C(c3cn(CCCCC(=N)N)c4ccccc34)C(=O)NC2=O)c2ccccc21 | 9.81 µM | > 25 µM |
| CN=C(N)N/N=C(\C)c1ccc2c(c1)Cc1ccccc1-2 | 1.79 µM | 4.4 µM |
| Cc1c(Cl)c(C)c(Cc2c(C)c(Cl)c(C)c(Cl)c2O)c(O)c1Cl | 1.82 µM | 8.4 µM |
| NC(=O)c1ccc(N(C(N)=O)c2c(F)cccc2F)nc1-c1ccc(F)cc1F | > 100 µM | > 100 µM |
| Cn1cc(-c2nc(N[C@@H]3CCCC[C@@H]3N)c(F)c3c2C(=O)NC3)cn1 | 13 µM and 16.9 µM | 44.9 µM and 69.9 µM |
| O=C(CCCCCCCCC(=O)N/N=C\c1cc(Cl)ccc1O)N/N=C\c1cc(Cl)ccc1O | 1.44 µM | 7.36 µM |
| Cc1cc(Nc2nc(-c3ccncc3)nc3ccccc23)n[nH]1 | 6.81 µM | > 100 µM |
| O=C(Nc1nc2ccccc2s1)c1cc(-c2ccc(F)cc2)n2nc(-c3ccccc3)cc2n1 | 5.18 µM | 36 µM |
| COC(=O)C(CSC(c1ccccc1)(c1ccccc1)c1ccccc1)NC(=O)C(CC(N)=O)NC(=O)OCc1ccccc1 (stereo not drawn) (Cbz-Asn-Cys(Trt)-OMe; configuration not given here) | 3.13 µM | 14.6 µM |
| C=CC(C)(O)CC/C=C(\CO)C(=O)OC1C(C)OC(O[C@](C)(C=C)CC/C=C(\CO)C(=O)O[C@H]2C[C@@]3(C(=O)OC4OC(CO)C(O)C(O)C4OC4OC(C)C(OC5OC(CO)C(O)C5O)C(OC5OC(CO)C(O)C(O)C5O)C4O)C(CC2(C)C)C2=CCC4[C@@]5(C)CC[C@H](OC6OC(COC7OC(C)C(O)C(O)C7OC7OCC(O)C(O)C7O)C(O)C(O)C6NC(C)=O)C(C)(C)C5CC[C@@]4(C)[C@]2(C)C[C@H]3O)C(O)C1O (stereo partly specified) | 0.189 µM | 0.848 µM |
| COc1cc(Cn2c(-c3ccccc3)cc3c2-c2oncc2CC3)cc(OC)c1 | 0.211 µM | 0.745 µM |
| C/C(=N\NC(=O)CSc1nc2sc3c(c2c(=O)n1-c1ccccc1)CCC(C)C3)c1ccc(Cl)cc1 (stereo unspecified) | 1.55 µM | 5.92 µM |
| Nc1c(C(=O)Nc2cccc3ccccc23)sc2nc3c(cc12)C(=O)CCC3 | 0.195 µM | > 45 µM |
| O=C(/C=C/c1cccc2ccccc12)Nc1ncc(Cc2ccccc2)s1 | 0.665 µM | > 24.9 µM |
| O=C(C=C=Nc1ccccc1)C(=O)N=C=Cc1ccccc1 | 2.1 µM | 4.93 µM |
| C=C(C)[C@@H]1CC[C@]2(CO)CC[C@]3(C)[C@H](CC[C@@H]4[C@@]5(C)CC[C@H](NCO)C(C)(C)[C@@H]5CC[C@]43C)[C@@H]12 | 0.854 µM | 1.71 µM |
| CCN(CC)Cc1cc(Nc2c3ccccc3nc3cc(Cl)ccc23)ccc1O | 1.5 µM | 3.06 µM |
| H-QIYKKYRTWYRKAWKVLGKV-NH2 | 10.9 µM | 41.9 µM |
